From the NIST ThermoML archive (doi:10.1016/j.jct.2012.11.032)

Assay: xn = mol fraction of the nth substance listed
Conditions: 101 kPa, Liquid; for speed of sound: Sing-around technique in a fixed-path interferometer; for mass density: Vibrating tube method

CCCCCCCCCCCC[n+]1ccn(C)c1.[Cl-] [1-dodecyl-3-methylimidazolium chloride] + O
Conditions | mass density [kg/m3] | speed of sound [m/s]
298 K, x1 = 2.7e-05 | 997.065 | –
298 K, x1 = 3e-05 | 997.081 | –
298 K, x1 = 4.8e-05 | 997.081 | –
298 K, x1 = 7.4e-05 | 997.07 | –
298 K, x1 = 9.4e-05 | 997.061 | –
298 K, x1 = 0.000109 | 997.064 | –
298 K, x1 = 0.000129 | 997.078 | –
298 K, x1 = 0.000145 | 997.058 | –
298 K, x1 = 0.000163 | 997.076 | –
298 K, x1 = 0.000181 | 997.056 | –
298 K, x1 = 0.000208 | 997.055 | –
298 K, x1 = 0.000234 | 997.049 | –
298 K, x1 = 0.000248 | 997.059 | –
298 K, x1 = 0.000273 | 997.045 | –
298 K, x1 = 0.000286 | 997.042 | –
298 K, x1 = 0.000302 | 997.023 | –
298 K, x1 = 0.000319 | 997.039 | –
298 K, x1 = 0.000341 | 997.023 | –
298 K, x1 = 0.000384 | 997.011 | –
298 K, x1 = 0.000407 | 996.995 | –
298 K, x1 = 0.000428 | 996.98 | –
298 K, x1 = 0.0428 | – | 1500.7
303 K, x1 = 2.7e-05 | 995.678 | –
303 K, x1 = 3e-05 | 995.688 | –
303 K, x1 = 4.8e-05 | 995.688 | –
303 K, x1 = 7.4e-05 | 995.68 | –
303 K, x1 = 9.4e-05 | 995.666 | –
303 K, x1 = 0.000109 | 995.667 | –
303 K, x1 = 0.000129 | 995.679 | –
303 K, x1 = 0.000145 | 995.66 | –
303 K, x1 = 0.000163 | 995.674 | –
303 K, x1 = 0.000181 | 995.656 | –
303 K, x1 = 0.000208 | 995.653 | –
303 K, x1 = 0.000234 | 995.647 | –
303 K, x1 = 0.000248 | 995.65 | –
303 K, x1 = 0.000273 | 995.635 | –
303 K, x1 = 0.000286 | 995.632 | –
303 K, x1 = 0.000302 | 995.606 | –
303 K, x1 = 0.000319 | 995.625 | –
303 K, x1 = 0.000341 | 995.608 | –
303 K, x1 = 0.000384 | 995.594 | –
303 K, x1 = 0.000407 | 995.571 | –
303 K, x1 = 0.000428 | 995.568 | –
303 K, x1 = 0.0027 | – | 1509.5
303 K, x1 = 0.003 | – | 1509.5
303 K, x1 = 0.0048 | – | 1509.8
303 K, x1 = 0.0074 | – | 1510.1
303 K, x1 = 0.0094 | – | 1510.4
303 K, x1 = 0.0109 | – | 1510.6
303 K, x1 = 0.0129 | – | 1510.8
303 K, x1 = 0.0145 | – | 1511
303 K, x1 = 0.0163 | – | 1511.2
303 K, x1 = 0.0181 | – | 1511.4
303 K, x1 = 0.0208 | – | 1511.8
303 K, x1 = 0.0234 | – | 1512
303 K, x1 = 0.0248 | – | 1512.1
303 K, x1 = 0.0273 | – | 1512.3
303 K, x1 = 0.0286 | – | 1512.3
303 K, x1 = 0.0302 | – | 1512.4
303 K, x1 = 0.0319 | – | 1512.5
303 K, x1 = 0.0341 | – | 1512.6
303 K, x1 = 0.0384 | – | 1512.5
303 K, x1 = 0.0407 | – | 1512.7
303 K, x1 = 0.0428 | – | 1512.7
308 K, x1 = 2.7e-05 | 994.072 | –
308 K, x1 = 3e-05 | 994.075 | –
308 K, x1 = 4.8e-05 | 994.073 | –
308 K, x1 = 7.4e-05 | 994.068 | –
308 K, x1 = 9.4e-05 | 994.05 | –
308 K, x1 = 0.000109 | 994.047 | –
308 K, x1 = 0.000129 | 994.059 | –
308 K, x1 = 0.000145 | 994.046 | –
308 K, x1 = 0.000163 | 994.052 | –
308 K, x1 = 0.000181 | 994.039 | –
308 K, x1 = 0.000208 | 994.032 | –
308 K, x1 = 0.000234 | 994.027 | –
308 K, x1 = 0.000248 | 994.022 | –
308 K, x1 = 0.000273 | 994.008 | –
308 K, x1 = 0.000286 | 994.004 | –
308 K, x1 = 0.000302 | 993.979 | –
308 K, x1 = 0.000319 | 993.993 | –
308 K, x1 = 0.000341 | 993.986 | –
308 K, x1 = 0.000384 | 993.958 | –
308 K, x1 = 0.000407 | 993.935 | –
308 K, x1 = 0.000428 | 993.939 | –
308 K, x1 = 0.0027 | – | 1520.1
308 K, x1 = 0.003 | – | 1520.2
308 K, x1 = 0.0048 | – | 1520.4
308 K, x1 = 0.0074 | – | 1520.7
308 K, x1 = 0.0094 | – | 1521
308 K, x1 = 0.0109 | – | 1521.1
308 K, x1 = 0.0129 | – | 1521.3
308 K, x1 = 0.0145 | – | 1521.5
308 K, x1 = 0.0163 | – | 1521.7
308 K, x1 = 0.0181 | – | 1521.9
308 K, x1 = 0.0208 | – | 1522.2
308 K, x1 = 0.0234 | – | 1522.4
308 K, x1 = 0.0248 | – | 1522.5
308 K, x1 = 0.0273 | – | 1522.7
308 K, x1 = 0.0286 | – | 1522.8
308 K, x1 = 0.0302 | – | 1522.8
308 K, x1 = 0.0319 | – | 1522.9
308 K, x1 = 0.0341 | – | 1523
308 K, x1 = 0.0384 | – | 1522.8
308 K, x1 = 0.0407 | – | 1523
308 K, x1 = 0.0428 | – | 1523
313 K, x1 = 2.7e-05 | 992.261 | –
313 K, x1 = 3e-05 | 992.046 | –
313 K, x1 = 7.4e-05 | 992.253 | –
313 K, x1 = 9.4e-05 | 992.137 | –
313 K, x1 = 0.000109 | 992.207 | –
313 K, x1 = 0.000129 | 992.221 | –
313 K, x1 = 0.000145 | 992.226 | –
313 K, x1 = 0.000163 | 992.224 | –
313 K, x1 = 0.000181 | 992.217 | –
313 K, x1 = 0.000208 | 992.206 | –
313 K, x1 = 0.000234 | 992.203 | –
313 K, x1 = 0.000248 | 992.194 | –
313 K, x1 = 0.000273 | 992.178 | –
313 K, x1 = 0.000286 | 992.177 | –
313 K, x1 = 0.000302 | 992.159 | –
313 K, x1 = 0.000319 | 992.158 | –
313 K, x1 = 0.000341 | 992.147 | –
313 K, x1 = 0.000384 | 992.121 | –
313 K, x1 = 0.000407 | 992.068 | –
313 K, x1 = 0.000428 | 992.103 | –
313 K, x1 = 0.0027 | – | 1529.2
313 K, x1 = 0.003 | – | 1529.2
313 K, x1 = 0.0074 | – | 1529.7
313 K, x1 = 0.0094 | – | 1530
313 K, x1 = 0.0109 | – | 1530.1
313 K, x1 = 0.0129 | – | 1530.3
313 K, x1 = 0.0145 | – | 1530.4
313 K, x1 = 0.0163 | – | 1530.6
313 K, x1 = 0.0181 | – | 1530.8
313 K, x1 = 0.0208 | – | 1531.1
313 K, x1 = 0.0234 | – | 1531.3
313 K, x1 = 0.0248 | – | 1531.4
313 K, x1 = 0.0273 | – | 1531.5
313 K, x1 = 0.0286 | – | 1531.6
313 K, x1 = 0.0302 | – | 1531.6
313 K, x1 = 0.0319 | – | 1531.7
313 K, x1 = 0.0341 | – | 1531.8
313 K, x1 = 0.0384 | – | 1531.6
313 K, x1 = 0.0407 | – | 1531.8
313 K, x1 = 0.0428 | – | 1531.8
